According to US20230123334A1, “AMINO LIPID COMPOUND, PREPARATION METHOD THEREFOR, AND APPLICATION THEREOF” (SHENZHEN SHENXIN BIOTECHNOLOGY CO., LTD., priority 2020, published 2023):

System: HEK293 cells
Experiment: Preliminary screening as mRNA vectors, EGFP mRNA transfection of HEK293 cells
Assay type: cell-based
Conditions: EGFP mRNA 50 ng per well, 96-well plates; percentage of GFP fluorescent cells relative to total number of cells (Hoechst)
Method: Cell line: HEK293 cells (ATCC CRL-1573™)
Medium: DMEM supplemented with 10% fetal bovine serum (Invitrogen)
Screening: cell transfection on 96-well plates
Detection (readout): percentage of the number of GFP fluorescent cells relative to the total number of cells (the total number of cells was determined using nucleus dye Hoechst). Lipofectamine2000 (Invitrogen) was used as the positive control.
Method: the experimental method was basically the same with Example 4, and the mass of EGFP mRNA (TriLink) for transfection was 50 ng per well.

Row | Compound | Absolute mRNA transfection efficiency in HEK293 cells
1 | CCCCCCCCCCCCNc1nc(NCCN(C)C)nc(SCCCCCC)n1 [Compound D1S6N12] | 0.0%
2 | CCCCCCCCSc1nc(NCCCCCC)nc(NCCCN2CCOCC2)n1 [Compound D8S8N6] | 1.0%
3 | CCCCCCCCCCCCN(CCCCCCCCCCCC)c1nc(NCCN(C)C)nc(SCCCCCCC)n1 [D1S7^2N12] | 0.7%
4 | CCCCCCCCCCCCSc1nc(NCCN(CC)CC)nc(SCCCCCCCC)n1 [Compound D7S8S12] | 1.3%
5 | CCCCCCCCCCCCCCCCSc1nc(NCCCCCCCCCCCC)nc(NCCN2CCN(C)CC2)n1 [Compound D5S16N12] | 3.4%
6 | CCCCCCCCCCCCCCCNc1nc(NCCN(C)C)nc(SCCCCCCCCCCCCCC)n1 [Compound D1S14N15] | 1.1%
7 | CCCCCCCCCCCCCCCSc1nc(NCCCCCCCCCCC)nc(NCC2CCN(C)CC2)n1 [Compound D10S15N11] | 2.7%
8 | CCCCCCCNc1nc(NCCN2CCCCC2)nc(SCCCCCCC)n1 [Compound D4S7N7] | 3.4%
9 | CCCCCCCCCCCCCCCCCCSc1nc(NCCN(C)C)nc(SCCCCCCC)n1 [Compound D1S7S18] | 4.1%
10 | CCCCCCCCCCCSc1nc(NCC2CCN(C)CC2)nc(SCCCCCCC)n1 [Compound D10S7S11] | 60.8%
11 | CCCCCCCCCCCCCCCCCCSc1nc(NCCCCCCCCCCCC)nc(NCCN(CC)CC)n1 [Compound D7S18N12] | 0.3%
12 | CCCCCCCCCCCCCCCCCCNc1nc(NCCN(C)C)nc(SCCCCCCCCC)n1 [Compound D1S9N18] | 47.6%
13 | CCCCCCCCCCCCCCCCSc1nc(NCCCCCCCCCCC)nc(NCC2CCN(C)CC2)n1 [Compound D10S16N11] | 37.8%
14 | CCCCCCCCCCCCCCSc1nc(NCCCCCCCCCCC)nc(NCCN2CCCCC2)n1 [Compound D4S14N11] | 3.8%
15 | CCCCCCCCCCCCCCCCSc1nc(NCCN(C)C)nc(N(CCCCCCCCCCCC)CCCCCCCCCCCC)n1 [D1S16^2N12] | 0.0%
16 | CCCCCCCCCCCCCCCCNc1nc(NCCCN2CCN(C)CC2)nc(SCCCCCC)n1 [Compound D9S6N16] | 29.6%
17 | CCCCCCCCCCCCCCCCCCSc1nc(NCCCCCCCCCCC)nc(NCC2CCN(C)CC2)n1 [Compound D10S18N11] | 4.5%
18 | CCCCCCCCCCCCCCCSc1nc(NCCN2CCCCC2)nc(N(CCCCCCCCCCCC)CCCCCCCCCCCC)n1 [D4S15^2N12] | 0.2%
19 | CCCCCCCCSc1nc(NCCCCCC)nc(NCCN(C)C)n1 [Compound D1S8N6] | 2.4%
20 | CCCCCCCCCCCCCNc1nc(NCCCN2CCN(C)CC2)nc(SCCCCCCCCCCC)n1 [Compound D9S11N13] | 9.4%
21 | CCCCCCCCCCCCCCCSc1nc(NCCCCCCCCCCCCC)nc(NCCN2CCCCC2)n1 [Compound D4S15N13] | 0.8%
22 | CCCCCCSc1nc(NCCN(C)C)nc(SCCCCCC)n1 [Compound D1S6S6] | 0.7%
23 | CCCCCCSc1nc(NCCN2CCCCC2)nc(SCCCCCC)n1 [Compound D4S6S6] | 0.9%
24 | CCCCCCCCCCCCCCCCCCSc1nc(NCCCCCCCCCCC)nc(NCCN2CCN(C)CC2)n1 [Compound D5S18N11] | 1.1%
25 | CCCCCCCCCCCCCCCCNc1nc(NCCN2CCCCC2)nc(SCCCCCCCCCCCCCCC)n1 [Compound D4S15N16] | 4.8%

Row | Compound | Absolute mRNA transfection efficiency in HEK293 cells
26 | CCCCCCCCCCCCCCCCCCSc1nc(NCCCCCCC)nc(NCCN2CCCCC2)n1 [Compound D4S18N7] | 0.3%
27 | CCCCCCCCSc1nc(NCCCCCCC)nc(NCCN2CCN(C)CC2)n1 [Compound D5S8N7] | 2.5%
28 | CCCCCCCCCCSc1nc(NCCCCCCCCC)nc(NCCN2CCCC2)n1 [Compound D3S10N9] | 2.7%
29 | CCCCCCCCCCCCCCCSc1nc(NCCCCCCCCCCCCC)nc(NCC2CCN(C)CC2)n1 [Compound D10S15N13] | 5.4%
30 | CCCCCCCCCCCCCCCCCCNc1nc(NCCN2CCCC2)nc(SCCCCCCC)n1 [Compound D3S7N18] | 39.8%
31 | CCCCCCSc1nc(NCCN2CCN(C)CC2)nc(SCCCCCC)n1 [Compound D5S6S6] | 4.3%
32 | CCCCCCCCCCCCCNc1nc(NCCCN2CCN(C)CC2)nc(SCCCCCCCCC)n1 [Compound D9S9N13] | 20.0%
33 | CCCCCCCCCCCCN(CCCCCCCCCCCC)c1nc(NCCN(CC)CC)nc(SCCCCCCC)n1 [D7S7^2N12] | 1.2%
34 | CCCCCCCCCCSc1nc(NCCCCCC)nc(NCCCN(C)C)n1 [Compound D6S10N6] | 1.5%
35 | CCCCCCCCCCCCSc1nc(NCCCCCCC)nc(NCCN2CCOCC2)n1 [Compound D2S12N7] | 0.4%
36 | CCCCCCCCCCCSc1nc(NCCCCCCCCC)nc(NCCN(CC)CC)n1 [Compound D7S11N9] | 5.0%
37 | CCCCCCCCCCSc1nc(NCCCCCCC)nc(NCCCN2CCOCC2)n1 [Compound D8S10N7] | 0.6%
38 | CCCCCCSc1nc(NCC2CCN(C)CC2)nc(SCCCCCC)n1 [Compound D10S6S6] | 14.4%
39 | CCCCCCCCCCCCCCCNc1nc(NCCN(C)C)nc(SCCCCCC)n1 [Compound D1S6N15] | 3.6%
40 | CCCCCCCCCCCCCCCCSc1nc(NCCCCCCCC)nc(NCCN2CCCCC2)n1 [Compound D4S16N8] | 1.3%
41 | CCCCCCCCCNc1nc(NCCN2CCOCC2)nc(SCCCCCC)n1 [Compound D2S6N9] | 0.8%
42 | CCCCCCCCCCCCCCCCCCSc1nc(NCCCCCCCCCCCCC)nc(NCCN(C)C)n1 [Compound D1S18N13] | 0.2%
43 | CCCCCCCCCSc1nc(NCCN2CCOCC2)nc(SCCCCCCC)n1 [Compound D2S7S9] | 37.7%
44 | CCCCCCCCCCCCNc1nc(NCCCN2CCOCC2)nc(SCCCCCC)n1 [Compound D8S6N12] | 2.0%
45 | CCCCCCCCCCCCCCCCSc1nc(NCCCCCCCCCCCC)nc(NCCN2CCOCC2)n1 [Compound D2S16N12] | 1.2%
46 | CCCCCCCCCCCCCCCNc1nc(NCCCN(C)C)nc(SCCCCCCCC)n1 [Compound D6S8N15] | 55.3%
47 | CCCCCCCCNc1nc(NCCN2CCCC2)nc(SCCCCCCC)n1 [Compound D3S7N8] | 1.3%
48 | CCCCCCCCSc1nc(NCCN(C)C)nc(SCCCCCCCC)n1 [Compound D1S8S8] | 11.7%
49 | CCCCCCCCCCCCCCCNc1nc(NCCCN(C)C)nc(SCCCCCCCCCC)n1 [Compound D6S10N15] | 3.5%
50 | CCCCCCCCCCCCCCCSc1nc(NCCCCCCCC)nc(NCCN2CCN(C)CC2)n1 [Compound D5S15N8] | 94.7%
